Several values for one entry are separate records, joined by “and”; a condition that tells them apart may be missing. Equal values may be shown once.

In one assay the test system is facial pores. The assay can be described thus: 9 week in vivo split face study, Pore Area Fraction by image analysis. Further details: species or system human. To be noted: vehicle + 5% Hexyldecanol, twice daily topical on face, 8 weeks, upper cheek area, FIG. 1. The method, then: A 9 week in vivo study was conducted using a round robin, vehicle controlled, split face design including a 1 week normalization period with 330 subjects.
Treatment Regimen—The regimen begins with a one week washout period. Each morning the subject is to wash their face with a suitable cleanser (e.g., Olay Natural Science Deep Purify Cleanser, available from The Procter & Gamble Company, Cincinnati, Ohio), gently dry with a towel, apply a stock moisturizer (e.g., Vehicle as described in Table 2 with 3% glycerine, no panthenol, and 0.3% disodium EDTA) to the appropriate side of the face, wait 5 minutes, and then apply a UV blocking lotion (e.g., Olay Complete All Day Moisturizing Lotion SPF 15, available from The Procter & Gamble Company, Cincinnati, Ohio). […]
Images of the facial treatment sites are captured at baseline (week 0), and after 4 and 8 weeks of treatment and analyzed for changes to facial pores. […]
The region of interest (ROI), in this case the upper cheek area, was marked manually based on 12 predefined facial landmarks around the cheek—for example, corners of the eye, bridge of the nose, corners of the mouth. The degree of facial pores in the ROI were quantified objectively using image analysis algorithms based on an Optimus software platform. […]

For assay [1], the system named is HAS-2 gene (Hyaluronic Acid Synthase-2 gene). The assay can be described thus: Hyaluronic Acid (HA) Synthase expression, keratinocyte culture, Affymetrix GeneChip microarray. The assay is classed as cell-based. To be noted: 10 micro molar hexyldecanol; human telomerized keratinocytes; 6 hours exposure; six GeneChips; p-value=0.0366. The method, then:
B. Hyaluronic Acid (HA) Synthase Expression
Individual experiments (referred to as batches) are generally comprised of 60 Affymetrix GeneChips® (referred to as “instances”) containing 6 vehicle control samples, 2 positive control samples and 52 individual test material samples. Duplication of test materials is performed across batches. In vitro testing is performed in 6-well plates to provide sufficient RNA for GeneChip® analysis (2-4 ug total RNA yield/well). Human telomerized keratinocytes are grown in EpiLife® media with 1× Human Keratinocyte Growth Supplement (Invitrogen) on collagen I coated cell culture flasks and plates (Becton Dickinson). Cells are seeded into 6-well plates at 20,000 cells/cm2 24 hours before chemical exposure. At t=−24 hours cells are trypsinized from T-75 flasks and plated into 6-well plates in basal growth medium. At t=0 media is removed and replaced with the appropriate dosing solution as per the experimental design. Dosing solutions are prepared the previous day in sterile 4 ml Falcon snap cap tubes. After 6 hours of chemical exposure cells are viewed and imaged. […]
2. Transcriptional Screening—RNA Analyzed with Gene Chips […]
Data quality was determined using a variety of statistical measures, including t-tests, scatter biplots, and principal components analysis, depending upon the source and character of the data. […]

Another assay deals with IL-1 beta. Kind of assay: IL-1 inhibition assay (ICAM-1 promoter/luciferase reporter in ECV304 cells). It counts as cell-based, Human. To be noted: 5% concentration of hexyldecanol diluted to 0.05%; four replicates; 10 U/ml IL-1 beta, 4 hours. The procedure:
A. IL-1 Inhibition Assay Protocol
One vial of Human ECV304 cells stably transfected with human ICAM-1 promoter/luciferase reporter construct (pGL3 basic plasmid) and CMV-βgal/RSV-neo plasmid DNA (clone E1.3-22) is placed in a 75 cm flask with 15 ml of complete maintenance media defined as follows: M199 (Gibco, cat #11150-059, 1× liquid, 500 ml containing Earle's salts, Na bicarbonate, and L-glutamine), 10% FBS (certified, heat-inactivated from Gibco, cat #10082-147), 10 ug/ml gentamicin (Gibco, cat #15710-015—10 mg/ml soln (1000×), and 250 μg/ml geneticin antibiotic (active G418 from Gibco, cat 10131-035-50 mg/ml soln).
When cells are 85-90% confluent remove media. Dilute (10×) trypsin-EDTA (Gibco cat #15400-039) to (1×) with HBSS and add 3 ml of (1×) trypsin-EDTA to flask and rinse. Remove trypsin and add a fresh 3 ml/flask and incubate 3-4 min. Strike end of flask to detach cells, and then add 6 ml of complete maintenance medium thoroughly washing the flask and place liquid in a conical tube. Then rinse each flask with an additional 3 ml of maintenance media. Spin tube at 200×g (approx 900 rpm for centrifuge in 3N066B) for 7 minutes. Aspirate supernatant and resuspend cells in 10 ml of maintenance media. Place 10 ul of cell suspension into a hemocytometer and count cells in 5 squares. Use following equation—total# of cells counted ×dilution×104/# of squares counted=cells/ml. […]

Take `CCCCCCCCC(CO)CCCCCC` (stereo not drawn) [Hexyldecanol, 2-hexyldecan-1-ol]: in the assay with facial pores, the “reduction of Pore Area Fraction versus vehicle control” value was “significantly (p<=0.10) reducing Pore Area Fraction better than the control”. Moreover, in assay [1], the “HAS-2 gene transcriptional expression level, average fold change” value worked out at 1.336 fold change. In the assay with IL-1 beta, the “reduction of IL-1 stimulatory activity” value was 24% and 18% (2×) and 21%.

These data come from US20120148510A1, “Compositions and Methods for Improving the Appearance of Facial Pores” (priority 2010, published 2012).
